Assay [1] relates to ALK. The note with it: human, in vivo; cited from earlier work.
The next assay deals with small DRG neurons. Briefly: Excitability of small DRG neurons exposed to ALKAL2 (current clamp). The class given is cell-based, mouse. The following applies: for resting membrane potential (RMP): small DRG neurons, n=13. On the procedure:
DRG neurons were harvested from adult mice and enzymatically dissociated in Hank's balanced salt solution (HBSS) containing 2 mg/ml collagenase type I and 4 mg/ml dispase (Invitrogen) for 45 min at 37° C. […] Electrophysiological recordings were conducted using an external solution containing (in mM): 140.0 NaCl, 1.5 CaCl2, 2.0 MgCl2, 5.0 KCl, 10.0 HEPES, 10.0 D-glucose, pH 7.4 adjusted with NaOH, on the stage of an inverted epi-fluorescence microscope (Olympus IX51). DRG neuron were recorded based on size, knowing that TRPV1 is expressed in small neurons […], and pHluorin fluorescent signal. Action potentials were recorded using current clamp. Borosilicate glass (Harvard Apparatus Ltd.) pipettes were pulled and polished to 2-5 MQ resistance with a DMZ-Universal Puller (Zeitz-Instruments GmbH.) and filled with an internal solution containing (in mM): 140.0 KCl, 5.00 NaCl, 1 CaCl2, 1.0 EGTA, 10.0 HEPES, 1.0 MgCl2, 3.0 ATP Na2, pH 7.3 adjusted with KOH. All solutions were prepared and used at room temperature (22±2° C.) and their osmolarity adjusted to 310 mOsm. […] Recordings were performed using an Axopatch 200B amplifier (Axon Instruments, Foster City, CA, USA). Current-clamp protocols were applied using pClamp 10.4 software (Axon Instruments). […] Average DRG neuron capacitance was 12.45±0.85 pF. […] For prolonged ALKAL2 treatment, neurons were incubated with a low concentration of 10 nM for 16 hours.

Assay [2] relates to small (<20 μm) DRG neurons. Briefly: Neurite outgrowth of DRG neurons co-cultured with ALKAL2-transfected HEK cells. The class given is cell-based, mouse. The source says: Previous work has shown that the ALK receptor plays a central role in the development of neural-crest derived cells and neurite outgrowth (18, 19, 37, 38). Using a co-culture system, we tested whether secreted ALKAL2 is able to activate ALK on DRG neurons, thus promoting neurite outgrowth through an autocrine/paracrine signaling process. In this assay, HEK cell monolayers seeded in the upper chamber of a transwell were transfected with ALKAL2, and then placed above acutely dissociated DRG neurons seeded into the lower chamber (FIG. 4A). DRG neurons were exposed to HEK-secreted ALKAL2 for a further 16 hours, after which, neurite growth was assessed on small and medium size neurons (FIG. 4A).
DRG neurons were harvested from adult mice and enzymatically dissociated in Hank's balanced salt solution (HBSS) containing 2 mg/ml collagenase type I and 4 mg/ml dispase (Invitrogen) for 45 min at 37° C. DRGs were rinsed twice in HBSS and once in Neurobasal A culture medium (Thermo Fisher Scientific) supplemented with 2% B-27, 10% heat-inactivated fetal bovine serum (HI-FBS), 100 μg/ml streptomycin, 100 U/ml penicillin, 100 ng/ml of Nerve Growth Factor (NGF) and 100 ng/ml glial cell-derived neurotrophic factor (GDNF) (all from Invitrogen). Individual neurons were dispersed by trituration through a fire-polished glass Pasteur pipette in 4 ml media and cultured overnight at 37° C. with 5% CO2 in 96% humidity on glass coverslips previously treated with 25% Poly-Ornithine and Laminin (both from Sigma).
For co-culture experiments, human embryonic kidney (HEK) 293 tsA-201 cells were grown to 80% confluence at 37° C. (5% CO2) in Dulbecco's modified Eagle's medium (+10% fetal bovine serum, 200 units/ml penicillin and 0.2 mg/ml streptomycin (Invitrogen, Carlsbad, CA, USA)) in the transwell of a 12-well cell culture plate (Gibco). Cells were transfected with 0.5 or 1 μg of ALKAL2 plasmid (Genomics, ABIN3292379) using the calcium phosphate method and washed 12 hours after transfection. After another 8 hours, isolated DRG neurons plated on glass coverslips were placed in the bottom chamber of the 12-well plate and the media was changed to Neurobasal A culture medium (see above). Electrophysiological recordings or immunohistochemistry were conducted 24 hours later.
For the neurite outgrowth assay, cultured DRG neurons were either treated with increasing concentrations ([…], 1 nM, 10 nM, 100 nM and 1 μM) of recombinant mouse ALKAL2 (MyBioSource LLC, MBS14253) or co-cultured with ALKAL2 expressing HEK cells (see above) in Neurobasal A medium. After 24 h, the cells were washed twice with HBSS, fixed in 4% PFA for 15 min., incubated in blocking solution (PBS+1% BSA) for 30 min. and then immunostained with anti-β-tubulin III antibody (rabbit, 1/1000, Sigma-Aldrich) overnight at 4° C. Cells were washed in PBS twice then incubated with a goat-anti rabbit IgG conjugated to Alexa Fluor 488 (1/2000, Invitrogen) for 1 h. After several washes, coverslips were mounted on slides and confocal images acquired. Alexa-488 antibody was visualized by excitation with an argon laser […] and emission detected using a long-pass 530 nm filter. Alexa-555 antibody was visualized by excitation at 543 nm with a HeNe laser, and emission detected using a 585-615 nm band-pass filter.

Assay [3] deals with DRG neurons from TRPV1-pHluorin mice. The assay is described as follows: Current-clamp recording of DRG neurons from TRPV1-pHluorin mice exposed to capsaicin. The class given is cell-based, mouse. The following applies: capsaicin 100 nM. As for the experimental part:
(§1) DRG neurons were harvested from adult mice and enzymatically dissociated in Hank's balanced salt solution (HBSS) containing 2 mg/ml collagenase type I and 4 mg/ml dispase (Invitrogen) for 45 min at 37° C. […] Electrophysiological recordings were conducted using an external solution containing (in mM): 140.0 NaCl, 1.5 CaCl2, 2.0 MgCl2, 5.0 KCl, 10.0 HEPES, 10.0 D-glucose, pH 7.4 adjusted with NaOH, on the stage of an inverted epi-fluorescence microscope (Olympus IX51). DRG neuron were recorded based on size, knowing that TRPV1 is expressed in small neurons […], and pHluorin fluorescent signal. Action potentials were recorded using current clamp. Borosilicate glass (Harvard Apparatus Ltd.) pipettes were pulled and polished to 2-5 MQ resistance with a DMZ-Universal Puller (Zeitz-Instruments GmbH.) and filled with an internal solution containing (in mM): 140.0 KCl, 5.00 NaCl, 1 CaCl2, 1.0 EGTA, 10.0 HEPES, 1.0 MgCl2, 3.0 ATP Na2, pH 7.3 adjusted with KOH. All solutions were prepared and used at room temperature (22±2° C.) and their osmolarity adjusted to 310 mOsm. […] Recordings were performed using an Axopatch 200B amplifier (Axon Instruments, Foster City, CA, USA). Current-clamp protocols were applied using pClamp 10.4 software (Axon Instruments). […] Average DRG neuron capacitance was 12.45±0.85 pF. […]

The target in assay [4] is T1, TRPV1-pHluorin (Mus musculus, UniProt Q704Y3).
T1 construct: fused on or other part: superecliptic pHluorin (ecliptic GFP, EcGFP) inserted into the extracellular turret between His and Lys (615/616; H614/K615 elsewhere in the source)
The assay is described as follows: Capsaicin dose-response by calcium imaging on DRG neurons from TRPV1-pHluorin mice. The class given is cell-based. The following applies: read-out: EC50 of dose-response curve evoked by capsaicin, room temperature (22° C.), n=28.

A further assay has as its system DRG neurons from WT mice. The assay is described as follows: Current-clamp recording of DRG neurons from WT mice exposed to capsaicin. Type of assay: cell-based, mouse. The note with it: capsaicin 100 nM. On the procedure:
as §1

In the next assay the target is T2, TRPV1 wild type (Homo sapiens, UniProt Q8NER1).
T2 construct: expressed in transfected cells; host or cells: HEK cells
The assay is described as follows: Capsaicin-evoked TRPV1 current (I-V ramp) in HEK cells transfected with TRPV1 wild type. The following applies: capsaicin 100 nM, TRPV1 WT. The class given is cell-based.

Assay [5] concerns TRPV1-pHluorin. The assay is described as follows: Capsaicin-evoked TRPV1 current (I-V ramp) in HEK cells transfected with TRPV1-pHluorin. Type of assay: cell-based. The note with it: capsaicin 100 nM.
In assay [6] the target is T3, ALK (Mus musculus, UniProt P97793).
T3 construct: from tissue; host or cells: living mice, spinal dorsal horn
Briefly: Thermal hyperalgesia induced by intrathecal ALKAL2. Type of assay: in vivo. On the procedure:
(§2) Intrathecal injections were performed in conscious mice. Briefly, mice were manually restrained, the dorsal fur of each mouse was shaved, the spinal column was arched, and a 30-gauge needle attached in a PE20 Polyethylene tube to a 25 μl Hamilton micro syringe (Hamilton, Birmingham, UK) was inserted into the subarachnoid space between the L4 and L5 vertebrae. Accurate positioning of the needle tip was confirmed by a characteristic tail-flick response of animal when the needle if correctly positioned. Intrathecal injections of 10 μl were delivered over a period of 5 seconds.
Three trials for each mouse were performed.

Assay [7] deals with T3, ALK. Briefly: pALK immunostaining in the spinal dorsal horn after intrathecal ALKAL2. The note with it: 30 min following intrathecal ALKAL2 injection. Type of assay: in vivo. As for the experimental part: as §2
In assay [8] the target is anaplastic lymphoma kinase (ALK) receptor, endogenous on mouse DRG neurons and in the mouse spinal dorsal horn (mouse) (UniProt P97793). The assay is described as follows: cell-based or functional assay.
Where [9] appears, read: ALKAL2 co-culture in the presence of Lorlatinib 1 μM.
The mark [10] stands for this setting: ALKAL2 plasmid co-culture 16 h, small DRG neurons.
The mark [11] stands for this setting: ALKAL2 transfected condition vs control.

Data on five molecules can be found in US20250002608A1, “TREATMENT OF PAIN” (UTI Limited Partnership, priority 2021, published 2025).

T3 sequence (P97793 19-1621): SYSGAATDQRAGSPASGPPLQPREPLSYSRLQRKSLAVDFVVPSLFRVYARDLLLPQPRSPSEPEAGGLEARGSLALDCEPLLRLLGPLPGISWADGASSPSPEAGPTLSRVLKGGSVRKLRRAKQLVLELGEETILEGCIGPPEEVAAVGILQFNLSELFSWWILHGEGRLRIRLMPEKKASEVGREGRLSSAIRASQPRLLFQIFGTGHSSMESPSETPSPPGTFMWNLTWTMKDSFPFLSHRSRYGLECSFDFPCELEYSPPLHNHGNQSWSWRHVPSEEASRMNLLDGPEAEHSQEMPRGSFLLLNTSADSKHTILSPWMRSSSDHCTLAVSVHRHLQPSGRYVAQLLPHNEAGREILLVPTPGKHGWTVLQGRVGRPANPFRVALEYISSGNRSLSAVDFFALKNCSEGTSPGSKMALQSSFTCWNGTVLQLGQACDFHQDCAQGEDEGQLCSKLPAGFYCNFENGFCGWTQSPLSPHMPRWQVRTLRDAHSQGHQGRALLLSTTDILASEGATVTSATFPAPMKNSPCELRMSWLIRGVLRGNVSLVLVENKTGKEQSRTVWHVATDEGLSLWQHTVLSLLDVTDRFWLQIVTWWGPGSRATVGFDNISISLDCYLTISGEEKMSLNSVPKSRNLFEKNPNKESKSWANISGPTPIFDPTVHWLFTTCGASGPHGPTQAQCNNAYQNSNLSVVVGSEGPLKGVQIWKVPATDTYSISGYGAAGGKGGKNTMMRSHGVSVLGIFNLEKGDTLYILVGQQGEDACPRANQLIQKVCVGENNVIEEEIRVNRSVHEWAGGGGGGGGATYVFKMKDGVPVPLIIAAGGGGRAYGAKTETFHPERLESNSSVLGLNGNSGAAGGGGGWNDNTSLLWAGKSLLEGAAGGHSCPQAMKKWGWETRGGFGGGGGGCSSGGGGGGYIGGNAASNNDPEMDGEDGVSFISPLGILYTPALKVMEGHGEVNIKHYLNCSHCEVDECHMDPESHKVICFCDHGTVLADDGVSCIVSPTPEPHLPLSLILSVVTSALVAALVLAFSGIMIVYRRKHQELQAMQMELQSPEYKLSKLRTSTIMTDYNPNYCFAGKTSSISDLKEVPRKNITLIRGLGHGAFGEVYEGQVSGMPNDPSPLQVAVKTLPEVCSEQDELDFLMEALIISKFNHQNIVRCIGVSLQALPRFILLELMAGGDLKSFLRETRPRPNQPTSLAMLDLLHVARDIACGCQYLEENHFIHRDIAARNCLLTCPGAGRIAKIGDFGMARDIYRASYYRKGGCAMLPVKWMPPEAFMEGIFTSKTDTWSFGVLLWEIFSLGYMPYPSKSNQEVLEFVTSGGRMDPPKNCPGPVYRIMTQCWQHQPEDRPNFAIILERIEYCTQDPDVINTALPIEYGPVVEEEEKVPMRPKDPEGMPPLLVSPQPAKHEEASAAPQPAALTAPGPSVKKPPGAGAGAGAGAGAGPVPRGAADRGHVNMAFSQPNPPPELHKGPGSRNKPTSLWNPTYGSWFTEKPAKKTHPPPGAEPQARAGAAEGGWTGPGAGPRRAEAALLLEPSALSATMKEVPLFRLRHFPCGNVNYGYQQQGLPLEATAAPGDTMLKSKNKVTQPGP
Sequence of anaplastic lymphoma kinase (ALK) receptor, endogenous on mouse DRG neurons and in the mouse spinal dorsal horn (mouse) (P97793 19-1621): as above
T2 sequence (Q8NER1 whole entry, species assumed): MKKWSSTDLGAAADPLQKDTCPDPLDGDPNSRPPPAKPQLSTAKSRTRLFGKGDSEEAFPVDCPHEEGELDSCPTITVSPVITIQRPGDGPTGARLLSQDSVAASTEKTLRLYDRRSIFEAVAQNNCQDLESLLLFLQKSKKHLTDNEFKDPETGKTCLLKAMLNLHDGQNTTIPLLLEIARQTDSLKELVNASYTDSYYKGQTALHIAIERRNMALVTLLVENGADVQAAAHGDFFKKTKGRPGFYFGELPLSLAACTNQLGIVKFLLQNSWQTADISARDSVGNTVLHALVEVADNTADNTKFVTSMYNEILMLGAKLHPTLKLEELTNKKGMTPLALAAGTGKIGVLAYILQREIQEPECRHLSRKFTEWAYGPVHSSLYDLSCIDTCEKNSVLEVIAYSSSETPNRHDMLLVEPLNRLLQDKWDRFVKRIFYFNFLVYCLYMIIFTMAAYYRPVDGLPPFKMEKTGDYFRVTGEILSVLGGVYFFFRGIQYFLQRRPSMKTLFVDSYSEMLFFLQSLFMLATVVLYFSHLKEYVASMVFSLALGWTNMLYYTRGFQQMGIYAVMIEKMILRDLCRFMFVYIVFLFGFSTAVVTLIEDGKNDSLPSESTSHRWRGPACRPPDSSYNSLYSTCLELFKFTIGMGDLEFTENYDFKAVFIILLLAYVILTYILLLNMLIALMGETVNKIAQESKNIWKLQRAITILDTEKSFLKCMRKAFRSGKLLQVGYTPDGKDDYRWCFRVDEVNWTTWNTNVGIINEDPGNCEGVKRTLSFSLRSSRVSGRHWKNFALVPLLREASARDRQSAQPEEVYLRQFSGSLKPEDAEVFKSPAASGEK
T1 sequence (Q704Y3 1-615 limits assumed): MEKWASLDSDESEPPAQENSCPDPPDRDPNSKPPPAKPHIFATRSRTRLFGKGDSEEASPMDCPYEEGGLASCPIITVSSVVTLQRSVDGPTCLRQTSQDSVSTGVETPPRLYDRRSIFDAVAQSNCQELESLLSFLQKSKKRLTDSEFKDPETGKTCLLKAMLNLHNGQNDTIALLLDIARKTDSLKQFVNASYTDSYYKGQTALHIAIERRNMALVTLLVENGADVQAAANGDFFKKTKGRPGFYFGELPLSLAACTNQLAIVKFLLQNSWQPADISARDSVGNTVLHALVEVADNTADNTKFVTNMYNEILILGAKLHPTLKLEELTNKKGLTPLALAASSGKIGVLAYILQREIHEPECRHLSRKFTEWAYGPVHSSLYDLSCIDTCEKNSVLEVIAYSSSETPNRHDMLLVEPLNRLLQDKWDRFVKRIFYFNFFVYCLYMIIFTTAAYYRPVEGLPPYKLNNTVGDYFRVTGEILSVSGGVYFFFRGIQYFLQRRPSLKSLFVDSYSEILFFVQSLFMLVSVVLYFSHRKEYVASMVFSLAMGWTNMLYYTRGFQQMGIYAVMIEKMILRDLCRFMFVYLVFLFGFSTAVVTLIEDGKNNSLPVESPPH
T1 sequence (Q704Y3 616-839 limits assumed): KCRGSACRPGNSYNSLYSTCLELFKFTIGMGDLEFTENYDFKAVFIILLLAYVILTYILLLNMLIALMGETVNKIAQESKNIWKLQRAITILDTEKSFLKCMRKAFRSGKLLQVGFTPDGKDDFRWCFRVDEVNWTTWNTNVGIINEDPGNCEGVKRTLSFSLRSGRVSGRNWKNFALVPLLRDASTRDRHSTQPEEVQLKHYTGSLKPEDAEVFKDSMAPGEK

In the case of `Cc1cc(Nc2ncc(Cl)c(Nc3ccccc3S(=O)(=O)C(C)C)n2)c(OC(C)C)cc1C1CCNCC1` [Ceritinib], the “effect on pain in NSCL cancer patients” value in the assay with ALK [1] was “could reduce chest, arm and shoulder pain”.
Turning to `C[C@H]1Oc2cc(cnc2N)-c2c(nn(C)c2C#N)CN(C)C(=O)c2ccc(F)cc21` [Lorlatinib], the “action potential (AP) threshold” value in the assay with small DRG neurons (ALKAL2+Lorlatinib group, n=9) is on record as −31.59±1.76 mV. Moreover, the “resting membrane potential (RMP)” value in the assay on small DRG neurons (ALKAL2+Lorlatinib group) was −54.5±1.53 mV. Also, in [2] (setting [9]), the neurites per neuron is 8.7±1.9, the “number of branch points per neuron” value is 3.6±0.5 and the “total neurite length per neuron” value amounted to 83±8.8 μm.
Regarding `COc1cc(CNC(=O)CCCC/C=C/C(C)C)ccc1O` [capsaicin], the “resting membrane potential after application of capsaicin” value is −38.01±2.17 mV in assay [3] and −36.61±1.83 mV in the assay with DRG neurons from WT mice. In addition, the “AP frequency after capsaicin” value in [3] (400 pA current injection) is reported as 17.22±0.84 Hz; in the assay with DRG neurons from WT mice (400 pA current injection), 18.56±2.44 Hz. The EC50 on TRPV1-pHluorin [4] amounted to 1060 ± 90 nM. The “peak inward current at −100 mV” value is −10.2±1.63 pA/pF on TRPV1 wild type and −7.33±2.91 pA/pF in the assay with TRPV1-pHluorin [5]. In addition, the figures for the “peak outward current at +100 mV” value at TRPV1 wild type and in the assay on TRPV1-pHluorin [5] were 62.82±11.72 pA/pF and 61.36±11.97 pA/pF, respectively.

B1: ALKAL2: ligand of the ALK receptor; recombinant mouse ALKAL2 or secreted by HEK cells transfected with ALKAL2 plasmid (protein)
chain: QSRGPADRQTLLRLLVELVQELKKFHIGDSKRLQLLGESDFALGRREATDYGADQEEQRVEIVPRDLRMKDKFLKHLTGPLYFSPKCSKHFHRLYHNTRDCTIPAYYKRCARLLTRLAVSPMCMER
For the molecule B1, in the assay on small DRG neurons (ALKAL2 group, n=11), the “action potential (AP) threshold” value is recorded as −40.57±2.88 mV. The “resting membrane potential (RMP)” value with small DRG neurons (ALKAL2 group) was −55.15±2.21 mV. For the same molecule, the “AP frequency evoked by ascending steps of injected current” value in the assay on small DRG neurons (recombinant ALKAL2 for 16 h (10 nM)) is listed as “pronounced increase”. In [2] (setting [10]), the “number of branch points per neuron” value was determined as 8.9±0.9, the “total neurite length per neuron” value was found to be 267.1±2.2 μm and the “total neurites per neuron” value worked out at 18.6±1.2. Further, in [2] (setting [11]), the “increase in the total neurite length per neuron” value is reported as “five-fold increase”; the “increase in the total number of neurites (primary and secondary branches) and branching points” value is on record as “two-fold increase”. The “time after administration at which thermal hypersensitivity is back to baseline” value with ALK [6] (intrathecal ALKAL2, n=5 each group) turned out to be 72 h. For the same molecule, the “thermal hyperalgesia in naïve mice” value in the assay with ALK [6] (recombinant ALKAL2 intrathecal, 0.01, 0.1, 1 uM) is “induced thermal hyperalgesia lasting several hours in a dose-dependent manner”. Besides, the “pALK in the spinal dorsal horn” value with ALK [7] is given as “increase in pALK”.

B2: ALKAL2 secreted by HEK 293 tsA-201 cells transfected with ALKAL2 plasmid (Genomics, ABIN3292379) (ligand, UniProt Q6UX46 25-152, looked up, species assumed)
ALK and LTK ligand 2: GAEPREPADGQALLRLVVELVQELRKHHSAEHKGLQLLGRDCALGRAEAAGLGPSPEQRVEIVPRDLRMKDKFLKHLTGPLYFSPKCSKHFHRLYHNTRDCTIPAYYKRCARLLTRLAVSPVCMEDKQ
As for B2, in [8], the total neurite length per neuron was 267 µm; the total neurite length per neuron, transwell co-culture worked out at 5 fold; the total neurites in small (<20 µm) DRG neurons (neurites per neuron) came to 18.6.

A word on the EC50: it is the midpoint of the concentration-response curve.
